For orientation: LogP means a log measure of how a compound divides between an organic and an aqueous phase. Read a high LogP as a more lipophilic compound. As a reminder, the chromatographic logP is lipophilicity estimated from chromatographic retention. High values mean higher lipophilicity, low ones lower lipophilicity.

15 molecules from patent US9090600B2, “Fungicidal 4-substituted-3-{phenyl[(heterocyclylmethoxy)imino]methyl}-1,2,4-oxadizol-5(4H)-one derivatives” (BAYER INTELLECTUAL PROPERTY GMBH, priority 2011, dated 2015) can be followed below.

Where two headings read alike, the source gives them in different places. Marks after values point to notes of the source that are not given here.

For one data set, the system named is Plasmopara viticola. Put plainly: Plasmopara test (grapevines)/preventive. Particulars: preventive spray, 10 ppm of active ingredient, evaluated 6 days after inoculation. The data set is classed as in vivo. The method, boiled down: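 Young grapevines sprayed preventively with compound formulated in acetone/dimethylacetamide with emulsifier, diluted in water, then inoculated with P. viticola spores after drying. Held 1 day at ~20 °C/100% RH, 4 days in greenhouse at ~21 °C/~90% RH, then misted for 1 day. Efficacy scored 6 days post-inoculation (0% = untreated control, 100% = no disease).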

The next data set has as its system Pythium aphanidermatum. Put plainly: Pythium test (cucumber)/seed treatment. The note with it: 10 g/dt seed of active ingredient, emerged seedlings after 7 days. The data set is classed as in vivo. On the procedure: (§1) The test is performed under greenhouse conditions.
Cucumber seeds, treated with the active compound or compound combinations, solved in N-methyl-2-pyrrolidon and diluted with water to the desired dosages, were sown in 6*6 cm pots containing 4 cm of a 1:1 mix of steamed field soil and sand.
Perlite was incubated with mycelium fragments of Pythium aphanidermatum. 5 ml of infected perlite was scattered between the treated […] seeds. Seeds were then covered by the 1:1 mix of steamed field soil and sand. Pots were incubated in the greenhouse 7 days at 24° C. and 80% relative humidity. Assessment consisted of counting of emerged seedlings. 0% means an efficacy which corresponds to that of the control, while an efficacy of 100% means that all seedlings have emerged.

The subject of the next data set is Pythium ultimum. Briefly: Pythium test (cotton)/seed treatment. The data set is classed as in vivo. Particulars: 10 g/dt seed of active ingredient, emerged seedlings after 7 days. As to the method:
as §1
Cotton seeds, treated with the active compound or compound combinations, solved in N-methyl-2-pyrrolidon and diluted with water to the desired dosages, were sown in 6*6 cm pots containing 4 cm of a 1:1 mix of steamed field soil and sand.
Perlite was incubated with mycelium fragments of Pythium ultimum. 1 ml of infected perlite was scattered between the treated cotton seeds. Seeds were then covered by light expanded clay aggregate. Pots were incubated in the greenhouse 7 days at 20° C. and 80% relative humidity.
(§2) Assessment consisted of counting of emerged seedlings. 0% means an efficacy which corresponds to that of the control, while an efficacy of 100% means that all seedlings have emerged.

The subject of data set [1] is Phytophthora infestans. In kind it is in vivo. The note with it: tomato, preventive spray, 100 ppm of active ingredient, evaluated 7 days after inoculation.
For a further data set, the system named is Pythium irregulare. Briefly: Pythium test (corn)/seed treatment. The data set is classed as in vivo. The note with it: 10 g/dt seed of active ingredient, emerged seedlings after 7 days at 10° C. then 14 days at 20° C. On the procedure: as §1
Corn seeds, treated with the active compound or compound combinations, solved in N-methyl-2-pyrrolidon and diluted with water to the desired dosages, were sown in 6*6 cm pots containing 4 cm of a 1:1 mix of steamed field soil and sand.
Perlite was incubated with mycelium fragments of Pythium irregulare. 5 ml of infected perlite was scattered between the treated cotton seeds. Seeds were than covered by the 1:1 mix of steamed field soil and sand. Pots were incubated in the greenhouse 7 days at 10° C. and 80% relative humidity and then 14 days at 20° C. and 80% relative humidity.
as §2

The conditions of data set [2]: pH 2.7.
The subject of data set [3] is Phytophthora infestans. In kind it is in vivo. The note with it: tomato plants, spray, 500 ppm, grading 5 days after contamination.
A further data set has as its system Pyricularia grisea. The data set is classed as in vivo. The note with it: rice plants, spray, 500 ppm, grading 6 days after contamination.
The test system of a further data set is Sphaerotheca fuliginea. Put plainly: In vivo test on Sphaerotheca fuliginea (cucurbits powdery mildew). Particulars: gherkin plants, spray, 500 ppm, grading 12 days after contamination. On the procedure: (§3) The active ingredients tested are prepared by homogenization in a mixture of acetone/tween/DMSO, then diluted with water to obtain the desired active material.
Gherkin plants (Vert petit de Paris variety) in starter cups, sown on a 50/50 peat soil-pozzolana substrate and grown at 20° C./23° C., are treated at the cotyledon Z10 stage by spraying with the aqueous suspension described above. Plants, used as controls, are treated with an aqueous solution not containing the active material.
After 24 hours, the plants are contaminated by spraying them with an aqueous suspension of Sphaerotheca fuliginea spores (100.000 spores per ml). The spores are collected from a contaminated plants. The contaminated gherkin plants are incubated at about 20° C./25° C. and at 60/70% relative humidity.
Grading (% of efficacy) is carried out 12 days after the contamination, in comparison with the control plants.
(§4) Under these conditions, good (at least 70%) or total protection is observed at a dose of 500 ppm with the following compounds: […]

In a further data set the test system is Uromyces appendiculatus. Put plainly: In vivo test on Uromyces appendiculatus (brown rust of bean). Particulars: Saxa variety plants, spray, 500 ppm, grading 10 days after contamination. On the procedure:
as §3
Wheat plants (Saxa variety) sown on 50/50 peat soil-pozzolana substrate in starter cups and grown at 24° C., are treated at the 2-leaf stage (9 cm tall) by spraying with the aqueous suspension described above.
Plants, used as controls, are treated with an aqueous solution not containing the active material.
After 24 hours, the plants are contaminated by spraying the leaves with an aqueous suspension of Uromyces appendiculatus spores (150.000 spores per ml). The spores are collected from a 10-day-old contaminated […] and are suspended in water containing 2.5 ml/l of tween 80 10%. The contaminated […] are incubated for 24 hours at 20° C. and at 100% relative humidity, and then for 10 days at 20° C. and at 70% relative humidity. Grading is carried out 10 days after the contamination, in comparison with the control plants.
as §4

A further data set has as its system Puccinia recondita. Briefly: In vivo test on Puccinia recondita (brown rust). Particulars: wheat plants, spray, 500 ppm, grading 10 days after contamination. Put shortly: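 Wheat (Scipion) at the 1-leaf stage sprayed with compound suspension (acetone/tween/DMSO diluted in water), then inoculated 24 h later with Puccinia recondita spores at 100.000 spores per ml. Plants were held 24 h at 20 °C/100% RH, then 10 days at 20 °C/70% RH; protection graded 10 days post-inoculation versus untreated controls.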

In data set [4] the test system is Mycosphaerella graminicola. Put plainly: In vivo test on Mycosphaerella graminicola (wheat leaf spot). Particulars: wheat plants, spray, 500 ppm, grading 21 to 28 days after contamination. The method, boiled down: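 Scipion wheat at 1-leaf stage was sprayed with compound suspension (acetone/tween/DMSO diluted in water), then inoculated 24 h later with spores (500.000/ml). Plants were held 72 h at 18° C and 100% RH, then 21 to 28 days at 90% RH. Efficacy was graded as % versus untreated controls.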

Data set [5] is described as follows: Measurement of log P values by HPLC on reversed phase columns (EEC directive 79/831 Annex V.A8). The note with it: pH 2.7.
The test system of another data set is Botrytis cinerea. Briefly: In vivo test on Botrytis cinerea (grey mould). The note with it: gherkin plants, spray, 500 ppm, grading 4/5 days after contamination. As to the method: The active ingredients tested are prepared by homogenization in a mixture of acetone/Tween/DMSO, then diluted with water to obtain the desired active material
Gherkin plants (Vert petit de Paris variety), sown on a 50/50 peat soil-pozzolana substrate in starter cups and grown at 18-20° C., are treated at the cotyledon Z11 stage by spraying with the active ingredient prepared as described above.
Plants, used as controls, are treated with an aqueous solution not containing the active material. After 24 hours, the plants are contaminated by spraying them with an aqueous suspension of cryopreserved Botrytis cinerea spores (50.000 spores per ml) on upper surface of the leaves. The spores are suspended in a nutrient solution composed of: • 10 g/L of PDB; • 50 g/L of D-fructose; • 2 g/L of NH4NO3; • 1 g/L of KH2PO4.
The contaminated cucumber plants are settled for 4/5 days in a climatic room at 17° C. (day/night) and at 80% relative humidity.
Grading is carried out 4/5 days after the contamination, in comparison with the control plants.
as §4

Take `CCCCCOC(=O)Nc1cccc(CO/N=C(/c2ccccc2)c2noc(=O)n2C)n1` [Example 2]: the Eff. % in the data set on Plasmopara viticola was determined as 97%; in the data set on Pythium aphanidermatum, 98%; in the data set with Pythium ultimum it was 89%; with Phytophthora infestans [1], 100%; in the data set on Pythium irregulare, 100%. The LogP in data set [2] is 4.44 [a].

As to `C#CCCOC(=O)Nc1cccc(CO/N=C(/c2ccccc2)c2noc(=O)n2C)n1` [Example 3], the Eff. % came to 100% in the data set with Plasmopara viticola; 95% in the data set with Pythium aphanidermatum; 93% with Pythium ultimum; 98% with Phytophthora infestans [1]; 100% with Pythium irregulare. Besides, in data set [2], the LogP was 3.27 [a].

`CCCCC(=O)Nc1cccc(CO/N=C(/c2ccccc2)c2noc(=O)n2C)n1` [Example 15]: the Eff. % with Plasmopara viticola stood at 97%; in the data set on Pythium aphanidermatum it was 98%; in the data set with Pythium ultimum, 96%; in the data set on Phytophthora infestans [1], 98%; with Phytophthora infestans [3], 99%; in the data set on Pythium irregulare, 100%. Also, the LogP in data set [2] is 3.51 [a].

Consider `CC(C)CCCC(=O)Nc1cccc(CO/N=C(/c2ccccc2)c2noc(=O)n2C)n1` [Example 95], for which the values for the Eff. % in the data set on Plasmopara viticola, in the data set with Phytophthora infestans [3] and in the data set on Pyricularia grisea were 100%, 100% and 70%, respectively. In data set [2], the LogP is 4.25 [a].

For the molecule `CCC(CC)C(=O)Nc1cccc(CO/N=C(/c2ccccc2)c2noc(=O)n2C)n1` [Example 124], the results for the Eff. % in the data set with Phytophthora infestans [3] and in the data set with Sphaerotheca fuliginea were 99% and 80%, respectively. Moreover, the LogP in [2] was 3.71 [a].

`C=CCCCCC(=O)Nc1cccc(CO/N=C(/c2ccccc2)c2noc(=O)n2C)n1` [Example 167]: the Eff. % amounted to 86% in the data set with Plasmopara viticola, 98% in the data set on Phytophthora infestans [3] and 96% with Pyricularia grisea. Besides, the LogP in [2] is 3.89 [a].

Take `Cn1c(/C(=N\OCc2cccc(NC(=O)OCc3ccccc3)n2)c2ccccc2)noc1=O` [Example 168]: the Eff. % in the data set on Plasmopara viticola is 100%; in the data set on Pythium aphanidermatum, 92%; in the data set on Pythium ultimum, 70%; in the data set with Phytophthora infestans [1], 92%; in the data set on Phytophthora infestans [3] it was 99%; in the data set with Pythium irregulare, 100%. The LogP in [2] was 3.99 [a].

For the molecule `COc1ccccc1OCC(=O)Nc1nc(CO/N=C(/c2ccccc2)c2noc(=O)n2C)cs1` [Example 171], the Eff. % is 100% in the data set with Phytophthora infestans [3], 80% in the data set on Pyricularia grisea and 82% with Uromyces appendiculatus. The LogP in data set [2] is 3.55 [a].

Turning to `COc1ccc(OC)c(CC(=O)Nc2cccc(CO/N=C(/c3ccccc3)c3noc(=O)n3C)n2)c1` [Example 190], the Eff. % in the data set on Puccinia recondita stood at 94%; in [4], 100%; with Phytophthora infestans [3] it was 100%; with Sphaerotheca fuliginea, 98%; with Uromyces appendiculatus, 83%. In addition, in data set [2], the LogP is 3.6 [a].

Consider `CCN(CC)c1cccc(CO/N=C(/c2ccccc2)c2noc(=O)n2C)n1` [Example 197, 3-[(Z)-({[6-(diethylamino)pyridin-2-yl]methoxy}imino)(phenyl)methyl]-4-methyl-1,2,4-oxadiazol-5(4H)-one], for which the Eff. % with Puccinia recondita is 94%; in data set [4] it was 96%; in the data set with Phytophthora infestans [3] it was 100%; with Sphaerotheca fuliginea, 80%; in the data set on Uromyces appendiculatus, 89%. The chromatographic logP in [5] came out at 2.63.

Consider `CCOCC(C)OC(=O)Nc1cccc(CO/N=C(/c2ccccc2)c2noc(=O)n2C)n1` (stereo not drawn) [Example 199], for which the Eff. % is listed as 100% in the data set on Plasmopara viticola; 99% in the data set with Pythium aphanidermatum; 96% in the data set on Pythium ultimum; 97% in the data set with Phytophthora infestans [1]; 100% in the data set on Pythium irregulare. For the same molecule, the lipophilicity (LogP) in [2] is 3.53 [a].

For the molecule `CCCCCC(=O)Nc1cccc(CO/N=C(/c2cccc(OC)c2)c2noc(=O)n2C)n1` [Example 211], the Eff. % with Puccinia recondita is 71%; in the data set on Botrytis cinerea it was 84%; in the data set with Phytophthora infestans [3], 91%; in the data set on Sphaerotheca fuliginea it was 72%. The LogP in data set [2] is 3.92 [a].

In the case of `C#CCC(C)OC(=O)Nc1cccc(CO/N=C(/c2ccccc2)c2noc(=O)n2C)n1` (stereo not drawn) [Example 226], the Eff. % worked out at 100% with Plasmopara viticola; 99% with Pythium aphanidermatum; 93% in the data set with Pythium ultimum; 92% in the data set with Phytophthora infestans [1]; 100% with Phytophthora infestans [3]; 90% with Pythium irregulare. The LogP in data set [2] is 3.57 [a].

For the molecule `Cn1c(/C(=N\OCc2cccc(NC(=O)OC(CCl)CCl)n2)c2ccccc2)noc1=O` [Example 306], the Eff. % came to 100% in the data set on Phytophthora infestans [3] and 90% in the data set with Pyricularia grisea. Further, in data set [2], the LogP is 3.83 [a].

With `C#CCOC(=O)Nc1cccc(CO/N=C(/c2ccccc2)c2noc(=O)n2C)n1` [Example 342], the Eff. % came out at 100% in the data set with Plasmopara viticola; 100% with Pythium aphanidermatum; 100% in the data set on Pythium ultimum; 92% with Phytophthora infestans [1]; 99% with Phytophthora infestans [3]; 100% in the data set with Pythium irregulare. The log partition coefficient (LogP) in data set [2] is 3.13 [a].
